Earlier results, collected in patent US6543389B2, “Insecticidal pet collar” (Pfizer Inc., priority 2001, dated 2003).

Key:
ticks [1] = settings: collars as currently marketed, extruded matrix containing about 9% by weight of amitraz
ticks [2] = settings: as compared with fipronil
alpha-2 adrenoceptor = settings: affected dogs, injected intramuscularly

Compound | duration of tick protection (ticks [1]) | effect on numbers of live feeding ticks, egg hatchability, and larval viability (ticks [2]) | reversing effects of amitraz toxicosis (alpha-2 adrenoceptor)
Cc1ccc(N=CN(C)C=Nc2ccc(C)cc2C)c(C)c1 [Amitraz, 1,5-di-(2,4-dimethylphenyl)-3-methyl-1,3,5-triazapenta-1,4-diene] | about four | significantly greater effect | 
CCC1(c2c[nH]cn2)Cc2ccccc2C1 [atipamezole, 4-(2-ethyl-2,3-dihydro-1H-inden-2-yl)-1H-imidazole] |  |  | effective in reversing effects of amitraz toxicosis
